According to the NIST ThermoML archive (doi:10.1016/j.tca.2019.178319):
Numbers after ± are expanded uncertainties.

Details: Crystal; for mass density: 298 K, 101.33 kPa, X-ray diffraction; for Normal melting temperature: DTA

SMILES | mass density | Normal melting temperature
[I][Bi]([I])[I] [bismuth triiodide] | 5770 ± 20 kg/m3 | 407 ± 4 °C
[Bi+3].[Bi+3].[Se-2].[Se-2].[Se-2] [bismuth(III) selenide] | 7660 ± 30 kg/m3 | 707 ± 6 °C
[Bi+3].[Bi+3].[S-2].[S-2].[S-2] [bismuth(III) sulfide] | 6800 ± 20 kg/m3 | 777 ± 6 °C
